How the values were obtained:
[1] = system: mice fed a high-fat diet deficient in choline and methionine; assay: Mouse on a methionine/choline deficient high-fat diet (MCD-HFD); assay type: in vivo; conditions: for macrophage numbers, inflammatory infiltrate by F4/80 immunohistochemistry: statistically significant; for levels of mRNA expression for all markers of liver fibrosis / levels of mRNA expression for all markers of liver inflammation: vs control Group II
Procedure: The study was performed in mice fed a high-fat diet deficient in choline and methionine (MCD-HFD or MCD diet), a model that reproduces the clinical manifestations of human steatohepatitis and fibrosis in mice. These mice received the sGC stimulator Compound B prophylactically (at two doses, 1 and 3 mg/kg/day in the food), starting at the same time as the start of the administration of the high-fat diet deficient in choline/methionine, and before animals started manifesting clinical signs of steatohepatitis.
The prophylactic treatment with Compound B proceeded for a total of 9 weeks simultaneously with the high-fat diet deficient in choline/methionine administration. At the end of the treatment, the degree of inflammation was assessed in the liver by determining levels of gene expression for IL-6, TNFα, IL-10, MCP-1β, IL-1 and IL-Ira, by real-time PCR. Inflammation levels were also determined by assessing inflammatory infiltrate by F4/80 immunohistochemistry, and necroinflammation was assessed by hematoxylin-eosin staining. Liver fibrosis was determined by measuring levels of gene expression for collagen type I and II, MMP-2, TIMP-1 and TGFβ1 at the mRNA level. Histological analysis was carried out of tissue sections stained with Masson's trichrome and Sirius Red.
Group I (n=5): Chow Control group received a matching sucrose diet equivalent to the high-fat diet (HFD) for 9 weeks.
Group II (n=15): Choline/methionine deficient HFD Control group (MCD control group) received a Choline/methionine deficient HFD diet for 9 weeks.
Group III (n=10): Choline/methionine deficient HFD for 9 weeks supplemented with Compound B dosed in food (1 mg/kg body weight/day). (IW1 group)
Group IV (n=10): Choline/methionine deficient HFD for 9 weeks supplemented with Compound B dosed in food (3 mg/kg body weight/day). (IW3 group)
After treatment, animals were sacrificed and liver and blood samples were collected. The effects of the sGC stimulator on liver weight, steatosis, inflammation and fibrosis were evaluated as follows:
Total RNA was obtained with the RNAqueous kit. RNA concentrations were assessed in a UV-spectrophotometer and the RNA's integrity tested on a 6000 LabChip in a 2100 Bioanalyzer (Agilent Technologies, Palo Alto, Calif.). First strand cDNA synthesis was performed by incubating 1 μg of total RNA with 2.5 μl of 10×RT buffer, 1 μl of 25×dNTPs, 2.5 μl of 10× Primers and 1.25 μl of reverse transcriptase (25 μl final volume) for 10 minutes at 25° C. following 2 hours at 37° C. in a ABI thermal cycler. Ready-to-use primer and probe sets pre-developed by Applied Biosystems (TaqMan Gene Expression Assays) were used to quantify gene expression using R-actin as an endogenous control. Briefly, PCR reactions were performed in duplicate using the Universal TaqMan 2×PCR mastermix in a volume of 20 μl containing 1.25 μl cDNA. Real-time quantitative PCR was performed with an ABI Prism 7900 Sequence Detection System (Applied Biosystems) using the fluorescent TaqMan methodology. Real time PCR results were analyzed with the Sequence Detector Software version 2.1 (Applied Biosystems) and relative quantitation of gene expression was performed using the 2-ΔΔ Ct method. (User Bulletin #2; http://docs.appliedbiosystems.com/pebiodocs/04303859.pdf).
Tissue samples fixed in 10% formalin were embedded in paraffin, cut into 5 μm sections, stained with H&E and analyzed by a registered pathologist unaware of the treatments. Tissue sections were incubated for 10 minutes in 0.5% thiosemicarbazide and stained in 0.1% Sirius Red F3B in saturated picric acid for 1 hour, and subsequently washed with an acetic acid solution (0.5%). Masson's trichrome staining was performed at the Pathology Department of the Hospital Clinic, Barcelona, Spain. […]

[2] = Single ascending dose Phase I study in healthy volunteers; assay type: in vivo, human; conditions: oral capsule, top-line clinical data
Text: In a randomized, double-blind, placebo-controlled, single ascending dose Phase I study enrolling 46 healthy volunteers, participants were randomized 3:1 to receive a single dose of Compound B or placebo administered via an oral capsule.

[3] = system: TNFα, IL-6 and IL-10 cytokine levels; assay: LPS model of acute inflammation in mice; assay type: in vivo; conditions: 10 mg/kg oral gavage; LPS IV 1 h later; blood 2 h after LPS
Procedure: Acute murine models of inflammation have previously been described (see for example, Engelberts I et. al., Lymphokine Cytokine Res. 10(1-2):127-31 (1991) and Durez P et al., J Exp Med. 177:551-5 (1993)). In these models, mice or rats are administered the compound of interest followed by an injection of LPS (LPS stands for lipopolysaccharide, 100 ng IV administration) one hour later. LP S is a component of bacterial cell walls and elicits a rapid and strong systemic inflammatory response. Two hours after LPS injection, blood is collected, plasma and serum are isolated and cytokine levels are measured. The concentrations of TNFα and IL-6 in blood increase after stimulation with bacterial lipopolysaccharide (LP S). Measurement of cytokine production is carried out with either ELISA or cytokine bead assay (CBA).
The sGC stimulator Compound B was assessed in such an animal model using C57BL/6 mice. The structure of Compound B is depicted below:
The ability of Compound B to modulate cytokine release in vivo was assessed. Compound B was administered by oral gavage (formulated in methylcellulose as the carrier) at 1 and 10 mg/kg doses and the levels of the pro-inflammatory cytokines TNFα and IL-6 were measured, as well as the anti-inflammatory cytokine IL-10. Vehicle (V) and dexamethasone (dex, 5 mg/kg) were used as negative and positive controls, respectively, and 10 mice were used per group.

[4] = 3 mg/kg in food, 9 weeks (Group IV) vs control Group II
[5] = Group III (1 mg/kg/day), 9 weeks
[6] = Group IV (3 mg/kg/day), 9 weeks

In the case of `OC(CNc1nc(-c2cc(-c3ccon3)n(Cc3ccccc3F)n2)ncc1F)(C(F)(F)F)C(F)(F)F` [Compound B], the “Total NAS” value ([1]; 1 mg/kg (Group III) vs control group II) is reported as “reduced”, the “fibrosis as detected using Picrosirius Red staining” value ([1]; 1 mg/kg in food, 9 weeks (Group III)) is reported as “significantly reduced” and the “Total NAS” value ([1]; 3 mg/kg (Group IV) vs control group II) is reported as “reduced”. The “fibrosis as detected using Picrosirius Red staining” value ([1]; 3 mg/kg in food, 9 weeks (Group IV)) was “significantly reduced”, the “liver tissue weight versus total body weight ratio” value [1, 4] was “statistically significant reduction” and the “percentage of white adipose tissue in the liver” value [1, 4] was “statistically significant reduction”. The “reduction of fibrosis by analysis of trichrome stain and α-SMA deposition” value ([1]; 1 and 3 mg/kg in food, 9 weeks, FIG. 4) was “confirmed”, the “macrophage numbers, inflammatory infiltrate by F4/80 immunohistochemistry” value ([1]; Group III (1 mg/kg) vs control group II) was “decrease” and the “levels of mRNA expression for all markers of liver fibrosis” value [1, 5] was “reduced in a statistically significant manner”. For the same compound, the “levels of mRNA expression for all markers of liver inflammation” value [1, 5] was “reduced in a statistically significant manner”, the “macrophage numbers, inflammatory infiltrate by F4/80 immunohistochemistry” value ([1]; Group IV (3 mg/kg) vs control group II) was “decrease” and the “levels of mRNA expression for all markers of liver fibrosis” value [1, 6] was “reduced in a statistically significant manner”. For the same compound, the “levels of mRNA expression for all markers of liver inflammation” value [1, 6] was “reduced in a statistically significant manner”, the distribution to tissues [2] was “evidence of extensive distribution to tissues” and the “levels of IL-6” value [3] was “significantly reduced”. The “levels of IL-10” value [3] was “increasing” and the “levels of TNFα” value [3] was “significantly reduced”.

— patent US11357777B2, “Use of sGC stimulators for the treatment of nonalcoholic steatohepatitis (NASH)” (Cyclerion Therapeutics, Inc., priority 2016, dated 2022)
